# Test results as given in patent publication US20060154255A1, “Blood and tissue sample assessment of mitochondrial function and biochemistry as a tool for selection for feed efficiency and other production parameters” (priority 2002, published 2006).
# How the values were obtained:
# [1] = test system: breast muscle mitochondria; test: H2O2 production (electron leak) in breast muscle mitochondria with respiratory chain inhibitors; type: biochemical, broilers
# [2] = test system: leg muscle mitochondria; test: H2O2 production (electron leak) in leg muscle mitochondria with respiratory chain inhibitors; type: biochemical, broilers; details: low FE leg muscle mitochondria; versus no inhibitor (NI); rotenone 10 μM; P<0.07
# [3] = breast muscle mitochondria, inhibition at Complex II or Q cycle of Complex III, malonate 7 μM, TTFA 8 μM, myxothiazol 13 μM
# [4] = low FE breast muscle mitochondria, versus no inhibitor (NI), rotenone 10 μM, antimycin A 13 μM
Compound,"H2O2 production [1, 3]",H2O2 production [2],"H2O2 production [1, 4]"
"O=C(CC(=O)C(F)(F)F)c1cccs1 [TTFA, 4,4,4-trifluoro-1-[2-thienyl]-1,3-butanedione]",No differences were observed,,
O=C(O)CC(=O)O [malonate],No differences were observed,,
CO/C(=C/C(N)=O)[C@H](C)[C@H](/C=C/c1csc(-c2csc([C@@H](C)/C=C/C=C/C(C)C)n2)n1)OC [myxothiazol],No differences were observed,,
C=C(C)[C@H]1Cc2c(ccc3c2O[C@@H]2COc4cc(OC)c(OC)cc4[C@@H]2C3=O)O1 [rotenone],,an elevation,raised H2O2 production
antimycin A,,,raised H2O2 production
